# Measured values from PubChem BioAssay (NCI).
# Where “and” joins values, the source holds several entries; their conditions need not be identical. Equal entries are not always repeated.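 Step 1: Grow cells in 96-well plates. Step 2: Expose to compound for 48 hours at 5 concentrations. Step 3: Interpolate endpoints linearly; if unreached, use highest concentration. The concentration for 50% growth inhibition is given as GI50. TGI: total growth inhibition.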
# How the values were obtained:
# Experiment in all cases: NCI anticancer screen, dose series, 48 h
# SN12C renal = system: SN12C renal
# KM20L2 colon = system: KM20L2 colon
# MDA-MB-435 = system: MDA-MB-435
# A549 NSCLC = system: A549 NSCLC
# SW-620 colon = system: SW-620 colon
# OVCAR-4 ovarian = system: OVCAR-4 ovarian
# TK-10 renal = system: TK-10 renal
# SF-268 CNS = system: SF-268 CNS
# HCT-15 colon = system: HCT-15 colon
# NCI-H460 lung = system: NCI-H460 lung
# OVCAR-3 ovarian = system: OVCAR-3 ovarian
# COLO 205 colon = system: COLO 205 colon
# HL-60(TB) leukemia = system: HL-60(TB) leukemia
# HCC-2998 colon = system: HCC-2998 colon
# CAKI-1 renal = system: CAKI-1 renal
# EKVX NSCLC = system: EKVX NSCLC
# NCI-H522 lung = system: NCI-H522 lung
# 786-0 renal = system: 786-0 renal
# SNB-19 CNS = system: SNB-19 CNS
# LXFL 529 NSCLC = system: LXFL 529 NSCLC
# BT-549 breast = system: BT-549 breast
# MCF7 breast = system: MCF7 breast
# HOP-18 NSCLC = system: HOP-18 NSCLC
# KM12 colon = system: KM12 colon
# A498 renal = system: A498 renal
# SR leukemia = system: SR leukemia
# DLD-1 colon = system: DLD-1 colon
# UO-31 renal = system: UO-31 renal
# PC-3 prostate = system: PC-3 prostate
# UACC-257 melanoma = system: UACC-257 melanoma
# MDA-N = system: MDA-N
# UACC-62 melanoma = system: UACC-62 melanoma
# XF 498 CNS = system: XF 498 CNS
# U251 CNS = system: U251 CNS
# HT29 colon = system: HT29 colon
# ACHN renal = system: ACHN renal
# OVCAR-5 ovarian = system: OVCAR-5 ovarian
# DMS 114 small cell lung = system: DMS 114 small cell lung
# NCI-H23 lung = system: NCI-H23 lung
# RXF 393 renal = system: RXF 393 renal
# T-47D breast = system: T-47D breast
# MOLT-4 leukemia = system: MOLT-4 leukemia
# HOP-62 NSCLC = system: HOP-62 NSCLC
# SNB-78 CNS = system: SNB-78 CNS
# OVCAR-8 ovarian = system: OVCAR-8 ovarian
# HCT-116 colon = system: HCT-116 colon
# DU-145 prostate = system: DU-145 prostate
# M19-MEL melanoma = system: M19-MEL melanoma
# NCI-H226 lung = system: NCI-H226 lung
# SNB-75 CNS = system: SNB-75 CNS
# SK-MEL-2 melanoma = system: SK-MEL-2 melanoma
# HS 578T breast = system: HS 578T breast
# SK-OV-3 ovarian = system: SK-OV-3 ovarian
# DMS 273 small cell lung = system: DMS 273 small cell lung
# MDA-MB-231 breast = system: MDA-MB-231 breast
# MALME-3M melanoma = system: MALME-3M melanoma
# SK-MEL-5 melanoma = system: SK-MEL-5 melanoma
# CCRF-CEM leukemia = system: CCRF-CEM leukemia
# M14 melanoma = system: M14 melanoma
# SF-295 CNS = system: SF-295 CNS
# K-562 leukemia = system: K-562 leukemia
# SF-539 CNS = system: SF-539 CNS
# RPMI-8226 leukemia = system: RPMI-8226 leukemia
# SK-MEL-28 melanoma = system: SK-MEL-28 melanoma
# HOP-92 NSCLC = system: HOP-92 NSCLC
# LOX IMVI melanoma = system: LOX IMVI melanoma
# IGROV1 ovarian = system: IGROV1 ovarian
compound,measurement,setting,value
O=[N+]([O-])c1cccc2nc3ccccc3c(NCCO)c12,GI50,SN12C renal,0.299 nM
same,TGI,SN12C renal,2.32 nM
same,TGI,KM20L2 colon,3.57 nM
same,GI50,MDA-MB-435,0.0714 nM
same,GI50,A549 NSCLC,0.154 nM
same,TGI,A549 NSCLC,1.46 nM
same,GI50,SW-620 colon,0.0593 nM
same,TGI,SW-620 colon,1.4 nM
same,TGI,OVCAR-4 ovarian,2.93 nM and 26.7 nM
same,GI50,TK-10 renal,0.594 nM
same,TGI,TK-10 renal,9.35 nM and 2.74 nM
same,GI50,SF-268 CNS,0.25 nM
same,TGI,SF-268 CNS,3.77 nM and 10.7 nM
same,GI50,HCT-15 colon,0.293 nM
same,TGI,HCT-15 colon,4.25 nM
same,GI50,NCI-H460 lung,0.0272 nM
same,GI50,OVCAR-3 ovarian,2.87 nM
same,TGI,OVCAR-3 ovarian,1.78 nM
same,GI50,COLO 205 colon,0.181 nM
same,TGI,COLO 205 colon,6.4 nM and 0.73 nM
same,GI50,HL-60(TB) leukemia,1.18 nM
same,TGI,HL-60(TB) leukemia,> 100 nM
same,GI50,HCC-2998 colon,1.46 nM
same,TGI,HCC-2998 colon,3.67 nM and 3.38 nM
same,GI50,CAKI-1 renal,0.484 nM
same,TGI,CAKI-1 renal,2.93 nM
same,GI50,EKVX NSCLC,5.47 nM
same,TGI,EKVX NSCLC,3.73 nM
same,GI50,NCI-H522 lung,0.527 nM
same,TGI,NCI-H522 lung,1.52 nM
same,GI50,786-0 renal,0.265 nM
same,TGI,786-0 renal,2.1 nM
same,GI50,SNB-19 CNS,1.2 nM
same,TGI,SNB-19 CNS,87.8 nM
same,TGI,LXFL 529 NSCLC,15.7 nM
same,GI50,BT-549 breast,0.108 nM
same,TGI,BT-549 breast,0.295 nM
same,GI50,MCF7 breast,0.113 nM
same,TGI,MCF7 breast,0.471 nM
same,TGI,HOP-18 NSCLC,> 100 nM
same,GI50,KM12 colon,1.1 nM
same,TGI,KM12 colon,12.9 nM
same,GI50,A498 renal,9.34 nM
same,TGI,A498 renal,36.7 nM
same,GI50,SR leukemia,1.39 nM
same,TGI,SR leukemia,7.31 nM
same,TGI,DLD-1 colon,3.08 nM
same,GI50,UO-31 renal,0.336 nM
same,TGI,UO-31 renal,5.76 nM and 1.73 nM
same,GI50,PC-3 prostate,0.136 nM
same,TGI,PC-3 prostate,0.414 nM
same,GI50,UACC-257 melanoma,0.999 nM
same,TGI,UACC-257 melanoma,3.84 nM
same,GI50,MDA-N,0.0322 nM
same,GI50,UACC-62 melanoma,0.705 nM
same,TGI,XF 498 CNS,4.37 nM
same,GI50,U251 CNS,0.4 nM
same,TGI,U251 CNS,5.18 nM
same,GI50,HT29 colon,1.82 nM
same,TGI,HT29 colon,6.86 nM and 3.46 nM
same,GI50,ACHN renal,0.189 nM
same,TGI,ACHN renal,4.05 nM and 2.47 nM
same,GI50,OVCAR-5 ovarian,0.703 nM
same,TGI,OVCAR-5 ovarian,9.29 nM and 3.07 nM
same,TGI,DMS 114 small cell lung,14.2 nM
same,GI50,NCI-H23 lung,0.464 nM
same,TGI,NCI-H23 lung,5.23 nM and 1.92 nM
same,GI50,RXF 393 renal,0.14 nM
same,TGI,RXF 393 renal,3.95 nM and 0.815 nM
same,TGI,T-47D breast,4.8 nM
same,GI50,MOLT-4 leukemia,1.34 nM
same,TGI,MOLT-4 leukemia,> 100 nM
same,TGI,HOP-62 NSCLC,2.05 nM
same,TGI,SNB-78 CNS,50.4 nM and 12 nM
same,GI50,OVCAR-8 ovarian,1.21 nM
same,TGI,OVCAR-8 ovarian,19.2 nM
same,GI50,HCT-116 colon,0.0418 nM
same,TGI,HCT-116 colon,0.47 nM
same,GI50,DU-145 prostate,0.0482 nM
same,TGI,DU-145 prostate,1.95 nM
same,TGI,M19-MEL melanoma,8.48 nM
same,GI50,NCI-H226 lung,3.22 nM
same,TGI,NCI-H226 lung,9.82 nM and 19.8 nM
same,TGI,SNB-75 CNS,5.01 nM
same,GI50,SK-MEL-2 melanoma,0.338 nM
same,TGI,SK-MEL-2 melanoma,0.857 nM
same,GI50,HS 578T breast,0.298 nM
same,TGI,HS 578T breast,0.802 nM
same,GI50,SK-OV-3 ovarian,4.69 nM
same,TGI,DMS 273 small cell lung,48.1 nM
same,GI50,MDA-MB-231 breast,0.118 nM
same,GI50,MALME-3M melanoma,0.525 nM
same,TGI,MALME-3M melanoma,1.7 nM
same,GI50,SK-MEL-5 melanoma,0.279 nM
same,TGI,SK-MEL-5 melanoma,1.12 nM
same,GI50,CCRF-CEM leukemia,3.79 nM
same,TGI,CCRF-CEM leukemia,> 100 nM
same,TGI,M14 melanoma,0.799 nM
same,GI50,SF-295 CNS,0.952 nM
same,TGI,SF-295 CNS,13.7 nM
same,GI50,K-562 leukemia,1.26 nM
same,GI50,SF-539 CNS,0.647 nM
same,TGI,SF-539 CNS,2.14 nM
same,GI50,RPMI-8226 leukemia,0.0396 nM
same,GI50,SK-MEL-28 melanoma,0.707 nM
same,GI50,HOP-92 NSCLC,1.22 nM
same,TGI,HOP-92 NSCLC,4.61 nM and 5.48 nM
same,TGI,LOX IMVI melanoma,11.9 nM and 16.9 nM
same,GI50,IGROV1 ovarian,11.8 nM
same,TGI,IGROV1 ovarian,13.9 nM and 72.4 nM
